Values joined by “and” are separate entries in the source; they are usually repeats but may differ in a detail not shown here. Equal entries are not always repeated. Inconclusive results and toxic doses are left out. How the source made its calls: active means survival T/C of 150% or more; inactive means T/C below 125% in these data.
System: BDF1 mice, B16 melanoma ip, median survival T/C
Assay: NCI In Vivo Anticancer Drug Screen. Data for tumor model B16 Melanoma (intraperitoneal) in B6D2F1 (BDF1) mice
Conditions: endpoint: median survival time, higher = longer survival
Summary of the method: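 Compounds were tested in mice carrying transplantable tumors. Survival or tumor size was recorded, and each value is the treated-group measurement (T) divided by that of the vehicle-treated control group (C).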

[1] = dose: 25.0 mg/kg/injection, schedule: Q01DX009 (ip), vehicle: saline with Tween-80
[2] = dose: 50.0 mg/kg/injection, schedule: Q01DX009 (ip), vehicle: saline with Tween-80
[3] = dose: 100.0 mg/kg/injection, schedule: Q01DX009 (ip), vehicle: saline with Tween-80
[4] = dose: 100.0 mg/kg/injection, schedule: Q04DX003 (ip), vehicle: Klucel (hydroxypropylcellulose) (HPC)
[5] = dose: 200.0 mg/kg/injection, schedule: Q04DX003 (ip), vehicle: Klucel (hydroxypropylcellulose) (HPC)
[6] = dose: 400.0 mg/kg/injection, schedule: Q04DX003 (ip), vehicle: Klucel (hydroxypropylcellulose) (HPC)
[7] = dose: 12.5 mg/kg/injection, schedule: Q01DX009 (ip), vehicle: saline
[8] = dose: 25.0 mg/kg/injection, schedule: Q01DX009 (ip), vehicle: saline
[9] = dose: 100.0 mg/kg/injection, schedule: Q01DX009 (ip), vehicle: Klucel (hydroxypropylcellulose) (HPC)
[10] = dose: 200.0 mg/kg/injection, schedule: Q01DX009 (ip), vehicle: Klucel (hydroxypropylcellulose) (HPC)
[11] = dose: 400.0 mg/kg/injection, schedule: Q01DX009 (ip), vehicle: Klucel (hydroxypropylcellulose) (HPC)
[12] = dose: 12.5 mg/kg/injection, schedule: Q01DX009 (ip), vehicle: Klucel (hydroxypropylcellulose) (HPC)
[13] = dose: 25.0 mg/kg/injection, schedule: Q01DX009 (ip), vehicle: Klucel (hydroxypropylcellulose) (HPC)
[14] = dose: 200.0 mg/kg/injection, schedule: Q01DX009 (ip), vehicle: saline with Tween-80
[15] = dose: 50.0 mg/kg/injection, schedule: Q01DX009 (ip), vehicle: saline

Measured: T/C

CO[C@H]1Nc2c(ccc(C)c2O)C(=O)N2C=C(/C=C/C(N)=O)C[C@@H]12
inactive: dose: 0.05 mg/kg/injection, schedule: Q04DX003 (ip), vehicle: DMSO 111 % of control | dose: 0.06 mg/kg/injection, schedule: Q01DX009 (ip), vehicle: saline with Tween-80 92 % of control | dose: 0.1 mg/kg/injection, schedule: Q04DX003 (ip), vehicle: DMSO 101 % of control | dose: 0.12 mg/kg/injection, schedule: Q01DX009 (ip), vehicle: saline with Tween-80 94 % of control | dose: 0.2 mg/kg/injection, schedule: Q04DX003 (ip), vehicle: DMSO 120 % of control | dose: 0.25 mg/kg/injection, schedule: Q01DX009 (ip), vehicle: saline with Tween-80 97 % of control | dose: 0.4 mg/kg/injection, schedule: Q04DX003 (ip), vehicle: DMSO 112 % of control | dose: 16.5 micrograms/kg/injection, schedule: Q01DX009 (ip), vehicle: saline + alcohol 106 % of control | dose: 25.0 micrograms/kg/injection, schedule: Q01DX009 (ip), vehicle: saline with Tween-80 100 % of control | dose: 25.0 micrograms/kg/injection, schedule: Q04DX003 (ip), vehicle: saline with Tween-80 101 % of control | dose: 33.0 micrograms/kg/injection, schedule: Q01DX009 (ip), vehicle: saline + alcohol 100 % of control | dose: 50.0 micrograms/kg/injection, schedule: Q01DX009 (ip), vehicle: saline with Tween-80 104 % of control | dose: 50.0 micrograms/kg/injection, schedule: Q04DX003 (ip), vehicle: saline with Tween-80 104 % of control | dose: 66.0 micrograms/kg/injection, schedule: Q01DX009 (ip), vehicle: saline + alcohol 107 % of control | dose: 100.0 micrograms/kg/injection, schedule: Q01DX009 (ip), vehicle: saline with Tween-80 96 % of control | dose: 100.0 micrograms/kg/injection, schedule: Q04DX003 (ip), vehicle: saline with Tween-80 111 % of control | dose: 200.0 micrograms/kg/injection, schedule: Q01DX009 (ip), vehicle: saline with Tween-80 95 % of control | dose: 200.0 micrograms/kg/injection, schedule: Q04DX003 (ip), vehicle: saline with Tween-80 107 % of control

O=S(=O)(Nc1cccc(C(F)(F)F)c1)c1ccccc1
inactive: [1] 108 % of control | [2] 101 % of control | [3] 97 % of control

CC1CC(=O)c2ccccc2N1S(C)(=O)=O (stereo not drawn)
inactive: [4] 102 % of control | [5] 100 % of control | [6] 95 % of control

COC(=Nc1ccccc1)SSC(C)C
inactive: dose: 6.25 mg/kg/injection, schedule: Q01DX009 (ip), vehicle: saline with Tween-80 113 % of control | dose: 12.5 mg/kg/injection, schedule: Q01DX009 (ip), vehicle: saline with Tween-80 108 % of control | [1] 102 % of control | [2] 100 % of control | [3] 97 % of control

COC(=O)C1(N)CCCC1
inactive: dose: 6.25 mg/kg/injection, schedule: Q01DX009 (ip), vehicle: saline 105 % of control and 110 % of control | [7] 108 % of control and 109 % of control and 122 % of control | [8] 121 % of control and 123 % of control

COc1cccc(CN(C)CCC(=O)O)c1
inactive: [4] 104 % of control | [5] 102 % of control | [6] 101 % of control

NCCCC(NN)C(=O)O (stereo not drawn)
inactive: dose: 7.5 mg/kg/injection, schedule: Q01DX009 (ip), vehicle: saline 109 % of control | dose: 15.0 mg/kg/injection, schedule: Q01DX009 (ip), vehicle: saline 111 % of control | dose: 30.0 mg/kg/injection, schedule: Q01DX009 (ip), vehicle: saline 104 % of control

Oc1ccccc1N=Cc1ccc(C=Nc2ccccc2O)cc1
inactive: dose: 133.0 mg/kg/injection, schedule: Q01DX009 (ip), vehicle: gum acacia 88 % of control | dose: 200.0 mg/kg/injection, schedule: Q01DX009 (ip), vehicle: gum acacia 99 % of control

CC12CCC(O)CC1CCC1C2CCC2(C)C(c3ccc(=O)oc3)CCC12O (stereo not drawn)
inactive: dose: 0.31 mg/kg/injection, schedule: Q01DX009 (ip), vehicle: saline with Tween-80 98 % of control | dose: 0.62 mg/kg/injection, schedule: Q01DX009 (ip), vehicle: saline with Tween-80 94 % of control | dose: 1.25 mg/kg/injection, schedule: Q01DX009 (ip), vehicle: saline with Tween-80 99 % of control | dose: 2.5 mg/kg/injection, schedule: Q01DX009 (ip), vehicle: saline with Tween-80 99 % of control

O=C1NC(c2c(Cl)cccc2Cl)Nc2ccccc21 (stereo not drawn)
inactive: [9] 96 % of control | [10] 103 % of control | [11] 90 % of control

C=CCc1ccccc1C
inactive: [9] 104 % of control | [10] 105 % of control | [11] 90 % of control

O=C(Nc1ccccc1O)/C(Cl)=C/Cl
inactive: [12] 92 % of control | [13] 93 % of control | dose: 50.0 mg/kg/injection, schedule: Q01DX009 (ip), vehicle: Klucel (hydroxypropylcellulose) (HPC) 90 % of control

Cc1ccc(S(=O)(=O)N(CCCCN(S(=O)(=O)c2ccc(C)cc2)S(=O)(=O)c2ccc(C)cc2)S(=O)(=O)c2ccc(C)cc2)cc1
inactive: [4] 95 % of control | [6] 112 % of control

O=C(/C=C/C(=O)OCC(Cl)(Cl)Cl)OCC(Cl)(Cl)Cl
inactive: [3] 96 % of control | [14] 92 % of control

NC(Cn1ccc(=O)c(O)c1)C(=O)O (stereo not drawn)
inactive: [15] 109 % of control | dose: 100.0 mg/kg/injection, schedule: Q01DX007 (ip), vehicle: saline with Tween-80 98 % of control | dose: 100.0 mg/kg/injection, schedule: Q01DX009 (ip), vehicle: saline 107 % of control | dose: 200.0 mg/kg/injection, schedule: Q01DX007 (ip), vehicle: saline with Tween-80 88 % of control | dose: 200.0 mg/kg/injection, schedule: Q01DX009 (ip), vehicle: saline 109 % of control | dose: 294.0 mg/kg/injection, schedule: Q01DX007 (ip), vehicle: saline with Tween-80 117 % of control | dose: 300.0 mg/kg/injection, schedule: Q01DX007 (ip), vehicle: saline with Tween-80 86 % of control | dose: 367.5 mg/kg/injection, schedule: Q01DX007 (oral), vehicle: saline with Tween-80 103 % of control | dose: 420.0 mg/kg/injection, schedule: Q01DX007 (ip), vehicle: saline with Tween-80 96 % of control | dose: 525.0 mg/kg/injection, schedule: Q01DX007 (oral), vehicle: saline with Tween-80 96 % of control | dose: 750.0 mg/kg/injection, schedule: Q01DX007 (oral), vehicle: saline with Tween-80 98 % of control

O=C(O)C(CSC(c1ccccc1)(c1ccccc1)c1ccccc1)N=Cc1cccs1 (stereo not drawn)
inactive: [7] 117 % of control | [8] 122 % of control

C[Se]c1ncnc2c1c(C#N)cn2C1OC(CO)C(O)C1O (stereo not drawn)
inactive: dose: 3.12 mg/kg/injection, schedule: Q01DX009 (ip), vehicle: Klucel (hydroxypropylcellulose) (HPC) 92 % of control | [12] 97 % of control | [13] 90 % of control

COc1ccc(Oc2cc(CC3c4cc(OC)c(OC)cc4CCN3C)c([N+](=O)[O-])cc2OC)cc1OC (stereo not drawn)
inactive: [7] 100 % of control | [8] 100 % of control | [15] 98 % of control

Cc1ccc(NS(=O)(=O)c2ccc([N+](=O)[O-])cc2)cc1
inactive: dose: 25.0 mg/kg/injection, schedule: Q04DX003 (ip), vehicle: Klucel (hydroxypropylcellulose) (HPC) 115 % of control | dose: 50.0 mg/kg/injection, schedule: Q04DX003 (ip), vehicle: Klucel (hydroxypropylcellulose) (HPC) 103 % of control | [4] 108 % of control | [5] 97 % of control | [6] 115 % of control

Cc1ccc(NS(=O)(=O)c2ccc(F)cc2)cc1Cl
inactive: [9] 90 % of control | [4] 103 % of control | [10] 100 % of control | [5] 100 % of control | [11] 86 % of control | [6] 110 % of control

Cc1cc(NS(=O)(=O)c2ccccc2)c2c(c1NS(=O)(=O)c1ccccc1)CC=CC2
inactive: [4] 97 % of control | [5] 94 % of control | [6] 86 % of control

O=C1c2ccccc2C(=O)C(Cl)C1Cl (stereo not drawn)
inactive: dose: 0.19 mg/kg/injection, schedule: Q01DX009 (ip), vehicle: saline with Tween-80 94 % of control | dose: 0.39 mg/kg/injection, schedule: Q01DX009 (ip), vehicle: saline with Tween-80 94 % of control | dose: 5.0 mg/kg/injection, schedule: Q01DX009 (ip), vehicle: saline 86 % of control

COc1ccc(CC(C(=O)O)C(Cc2ccc(OC)c(OC)c2)C(=O)O)cc1OC (stereo not drawn)
inactive: [9] 94 % of control | [10] 89 % of control

NC(=O)C(Cl)(Cl)Cl
inactive: [3] 105 % of control | [14] 96 % of control | dose: 400.0 mg/kg/injection, schedule: Q01DX009 (ip), vehicle: saline with Tween-80 98 % of control

From PubChem BioAssay AID192 (DTP/NCI, 2004)
